# Test results: PubChem BioAssay AID1259407 (Chemical Carcinogenesis Research Information System (CCRIS), 2018)
# The source made the active and inactive calls. No rule for the calls is given here.
# System: CCRIS mutagenicity, Ames/micronucleus/aberration tests
# Experiment: CCRIS mutagenicity studies
# [1] = Test System: AMES SALMONELLA TYPHIMURIUM, Strain/Indicator: TA100, Metabolic Activation: RAT, LIVER, S-9, AROCLOR 1254 (10%), Method: PREINCUBATION
# [2] = Test System: AMES SALMONELLA TYPHIMURIUM, Strain/Indicator: TA98, Metabolic Activation: NONE, Method: STANDARD PLATE
# [3] = Test System: AMES SALMONELLA TYPHIMURIUM, Strain/Indicator: TA98, Metabolic Activation: RAT, LIVER, S-9, AROCLOR 1254, Method: STANDARD PLATE
# [4] = Test System: AMES SALMONELLA TYPHIMURIUM, Strain/Indicator: TA100, Metabolic Activation: NONE, Method: STANDARD PLATE
# [5] = Test System: AMES SALMONELLA TYPHIMURIUM, Strain/Indicator: TA1535, Metabolic Activation: RAT, LIVER, S-9, AROCLOR 1254, Method: STANDARD PLATE
smiles,measurement,setting,value
CC1CCCC1,mutagenic call,"Test System: AMES SALMONELLA TYPHIMURIUM, Strain/Indicator: TA97, Metabolic Activation: HAMSTER, LIVER, S-9, AROCLOR 1254 (10%), Method: PREINCUBATION",inactive; negative
same,mutagenic call,"Test System: AMES SALMONELLA TYPHIMURIUM, Strain/Indicator: TA97, Metabolic Activation: HAMSTER, LIVER, S-9, AROCLOR 1254 (30%), Method: PREINCUBATION",inactive; negative
same,mutagenic call,"Test System: AMES SALMONELLA TYPHIMURIUM, Strain/Indicator: TA97, Metabolic Activation: NONE, Method: PREINCUBATION",inactive; negative
same,mutagenic call,"Test System: AMES SALMONELLA TYPHIMURIUM, Strain/Indicator: TA97, Metabolic Activation: RAT, LIVER, S-9, AROCLOR 1254 (10%), Method: PREINCUBATION",inactive; negative
same,mutagenic call,"Test System: AMES SALMONELLA TYPHIMURIUM, Strain/Indicator: TA97, Metabolic Activation: RAT, LIVER, S-9, AROCLOR 1254 (30%), Method: PREINCUBATION",inactive; negative
same,mutagenic call,"Test System: AMES SALMONELLA TYPHIMURIUM, Strain/Indicator: TA98, Metabolic Activation: HAMSTER, LIVER, S-9, AROCLOR 1254 (10%), Method: PREINCUBATION",inactive; negative
same,mutagenic call,"Test System: AMES SALMONELLA TYPHIMURIUM, Strain/Indicator: TA98, Metabolic Activation: HAMSTER, LIVER, S-9, AROCLOR 1254 (30%), Method: PREINCUBATION",inactive; negative
same,mutagenic call,"Test System: AMES SALMONELLA TYPHIMURIUM, Strain/Indicator: TA98, Metabolic Activation: NONE, Method: PREINCUBATION",inactive; negative
same,mutagenic call,"Test System: AMES SALMONELLA TYPHIMURIUM, Strain/Indicator: TA98, Metabolic Activation: RAT, LIVER, S-9, AROCLOR 1254 (10%), Method: PREINCUBATION",inactive; negative
same,mutagenic call,"Test System: AMES SALMONELLA TYPHIMURIUM, Strain/Indicator: TA98, Metabolic Activation: RAT, LIVER, S-9, AROCLOR 1254 (30%), Method: PREINCUBATION",inactive; negative
same,mutagenic call,"Test System: AMES SALMONELLA TYPHIMURIUM, Strain/Indicator: TA100, Metabolic Activation: HAMSTER, LIVER, S-9, AROCLOR 1254 (10%), Method: PREINCUBATION",inactive; negative
same,mutagenic call,"Test System: AMES SALMONELLA TYPHIMURIUM, Strain/Indicator: TA100, Metabolic Activation: HAMSTER, LIVER, S-9, AROCLOR 1254 (30%), Method: PREINCUBATION",inactive; negative
same,mutagenic call,"Test System: AMES SALMONELLA TYPHIMURIUM, Strain/Indicator: TA100, Metabolic Activation: NONE, Method: PREINCUBATION",inactive; negative
same,mutagenic call,[1],inactive; negative
same,mutagenic call,"Test System: AMES SALMONELLA TYPHIMURIUM, Strain/Indicator: TA100, Metabolic Activation: RAT, LIVER, S-9, AROCLOR 1254 (30%), Method: PREINCUBATION",inactive; negative
same,mutagenic call,"Test System: AMES SALMONELLA TYPHIMURIUM, Strain/Indicator: TA1535, Metabolic Activation: HAMSTER, LIVER, S-9, AROCLOR 1254 (10%), Method: PREINCUBATION",inactive; negative
same,mutagenic call,"Test System: AMES SALMONELLA TYPHIMURIUM, Strain/Indicator: TA1535, Metabolic Activation: HAMSTER, LIVER, S-9, AROCLOR 1254 (30%), Method: PREINCUBATION",inactive; negative
same,mutagenic call,"Test System: AMES SALMONELLA TYPHIMURIUM, Strain/Indicator: TA1535, Metabolic Activation: NONE, Method: PREINCUBATION",inactive; negative
same,mutagenic call,"Test System: AMES SALMONELLA TYPHIMURIUM, Strain/Indicator: TA1535, Metabolic Activation: RAT, LIVER, S-9, AROCLOR 1254 (10%), Method: PREINCUBATION",inactive; negative
same,mutagenic call,"Test System: AMES SALMONELLA TYPHIMURIUM, Strain/Indicator: TA1535, Metabolic Activation: RAT, LIVER, S-9, AROCLOR 1254 (30%), Method: PREINCUBATION",inactive; negative
O=C1CCC(N2C(=O)c3ccccc3C2=O)C(=O)N1 (configuration not stated),mutagenic call,"Test System: AMES SALMONELLA TYPHIMURIUM, Strain/Indicator: TA97, Metabolic Activation: NONE, Method: STANDARD PLATE",inactive; negative
same,mutagenic call,"Test System: AMES SALMONELLA TYPHIMURIUM, Strain/Indicator: TA97, Metabolic Activation: RAT, LIVER, S-9, AROCLOR 1254, Method: STANDARD PLATE",inactive; negative
same,mutagenic call,[2],inactive; negative
same,mutagenic call,"Test System: AMES SALMONELLA TYPHIMURIUM, Strain/Indicator: TA98, Metabolic Activation: RAT, LIVER, S-9, AROCLOR 1254 (4, 10 OR 30%), Method: PREINCUBATION",inactive; negative
same,mutagenic call,[3],inactive; negative
same,mutagenic call,[4],inactive; negative
same,mutagenic call,[1],inactive; negative
same,mutagenic call,"Test System: AMES SALMONELLA TYPHIMURIUM, Strain/Indicator: TA100, Metabolic Activation: RAT, LIVER, S-9, AROCLOR 1254, Method: STANDARD PLATE",inactive; negative
same,mutagenic call,"Test System: AMES SALMONELLA TYPHIMURIUM, Strain/Indicator: TA1535, Metabolic Activation: NONE, Method: STANDARD PLATE",inactive; negative
same,mutagenic call,[5],inactive; negative
same,mutagenic call,"Test System: AMES SALMONELLA TYPHIMURIUM, Strain/Indicator: TA1537, Metabolic Activation: NONE, Method: STANDARD PLATE",inactive; negative
same,mutagenic call,"Test System: AMES SALMONELLA TYPHIMURIUM, Strain/Indicator: TA1537, Metabolic Activation: RAT, LIVER, S-9, AROCLOR 1254, Method: STANDARD PLATE",inactive; negative
same,mutagenic call,"Test System: AMES SALMONELLA TYPHIMURIUM, Strain/Indicator: TA1538, Metabolic Activation: NONE, Method: STANDARD PLATE",inactive; negative
same,mutagenic call,"Test System: AMES SALMONELLA TYPHIMURIUM, Strain/Indicator: TA1538, Metabolic Activation: RAT, LIVER, S-9, AROCLOR 1254, Method: STANDARD PLATE",inactive; negative
same,mutagenic call,"Test System: MOUSE LYMPHOMA, Strain/Indicator: L5178Y (TK+/TK-), Metabolic Activation: NONE, Method: MICROWELL",inactive; negative
same,mutagenic call,"Test System: MOUSE LYMPHOMA, Strain/Indicator: L5178Y (TK+/TK-), Metabolic Activation: RAT, LIVER, S-9, PHENOBARBITAL AND BETA-NAPHTHOFLAVONE, Method: MICROWELL",inactive; negative
CNC(=O)Oc1cc2ccccc2c2ccccc12,mutagenic call,[3],inactive; negative
same,mutagenic call,[5],active; positive
CC(C)(C)c1ccc(/C=C/c2ccc(N)cc2)cc1,mutagenic call,[2],inactive; negative
same,mutagenic call,"Test System: AMES SALMONELLA TYPHIMURIUM, Strain/Indicator: TA98, Metabolic Activation: RAT, LIVER, S-9, AROCLOR, Method: STANDARD PLATE",inactive; negative
same,mutagenic call,[4],inactive; negative
same,mutagenic call,"Test System: AMES SALMONELLA TYPHIMURIUM, Strain/Indicator: TA100, Metabolic Activation: RAT, LIVER, S-9, AROCLOR, Method: STANDARD PLATE",inactive; negative
